Three compounds from ChEMBL document CHEMBL1201862, “PubChem BioAssay data set” (2004) can be followed below.

Activity calls are given as the source filed them.

The nature of assay [1]: control 3'UTR Renilla luciferase suppression, dose response, counter-screen for Shn3 inhibitor project, cell-based, Clone20-Shn3RL, cherry-picked (AID 624133). The class given is functional. In general terms: A counterscreen serves to expose hits that act by an unwanted route or on another target.
The nature of assay [2]: Shn3 3'UTR reporter inhibitors, dose response, cell-based, Clone20 osteoblasts, firefly luciferase, cherry-picked (AID 624132).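 Also: firefly luciferase luminescence from reporter carrying the Shn3 3'UTR in osteoblasts.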 The class given is functional.
Assay [3] is described as follows: Luminescence Cell-Based Dose Retest to Confirm Inhibitors of Cancer Stem Cells. [Related pubchem assays (depositor defined):AID2717, AID2721]. The class given is functional. Particulars: Homo sapiens.
A further assay relates to INS1. Briefly: beta cell apoptosis inhibitors, cytokine rescue, dose response, luminescence, retest (AID 449756).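 Also: cell death triggered by IL-1 beta plus TNF-alpha plus IFN-gamma mixture; protective hits raise ATP signal compared with cytokine alone wells.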 The class given is functional, cell-based. Conditions: Rattus norvegicus.
For assay [4], the system named is Streptococcus sp. 'group A'. Briefly: growth inhibition of control SK(-) GAS strain, dose response, counter-screen for streptokinase expression inhibitor project, luminescence, kanamycin, BacTiterGlo, confirmation (AID 1900). The class given is functional, organism-based.
In the next assay the test system is HEK293. The assay can be described thus: inhibitors of LMP1-driven NF-kB reporter, dose response, cell-based, HEK293, luciferase, cherry-pick (AID 588343). It counts as functional. Conditions: Homo sapiens.
The next assay relates to Streptococcus. Briefly: Group A Streptococcus viability loss, dose response, counter-screen for streptokinase expression inhibitor project, luminescence, BacTiterGlo (AID 1915).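 Also: potency for reduction of bacterial viability or growth.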 The class given is functional, organism-based.
In assay [5] the target is Latent membrane protein 1 (Human herpesvirus 4 (strain B95-8), UniProt P03230). Briefly: TES1-eGFP NF-kB reporter inhibition versus Tet-On dsRED, dose response, selectivity assay for LMP1 NF-kB inhibitor project, imaging, HEK293T, dual-color eGFP/dsRED, cherry-picks (AID 588398). It counts as functional, cell-based.
Chain of Latent membrane protein 1 (P03230 whole entry): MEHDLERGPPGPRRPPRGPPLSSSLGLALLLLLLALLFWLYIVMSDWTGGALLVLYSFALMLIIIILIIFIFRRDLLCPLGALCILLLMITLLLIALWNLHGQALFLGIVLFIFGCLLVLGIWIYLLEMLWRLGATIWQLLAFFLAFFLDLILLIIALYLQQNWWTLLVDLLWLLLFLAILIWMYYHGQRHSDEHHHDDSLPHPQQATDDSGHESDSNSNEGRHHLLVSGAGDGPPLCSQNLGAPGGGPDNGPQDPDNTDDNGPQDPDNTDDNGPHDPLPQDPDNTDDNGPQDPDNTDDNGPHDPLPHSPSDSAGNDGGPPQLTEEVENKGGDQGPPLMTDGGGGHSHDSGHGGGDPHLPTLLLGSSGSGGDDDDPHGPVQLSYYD
A short description of assay [6]: microbe, parasite or virus in culture. The class given is functional. Particulars: Mycobacterium tuberculosis.
A short description of assay [7]: HepG2 cell cytotoxicity, dose response, cytotoxicity control for Shn3 inhibitor project, CellTiter-Glo, cherry-picked (AID 624134). It counts as functional, cell-based.
Assay [8] in a line: inhibitors of intracellular T. cruzi replication, confirmation, NIH3T3 host cells, beta-gal luminescence (AID 2044).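 Also: intracellular parasites grown in NIH/3T3 mouse fibroblasts as host cells; luminescent beta-galactosidase reporter signal from transgenic T. cruzi replicating inside host cells; inhibitors lower the luminescence signal.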 The class given is functional, cell-based.
Assay [9] can be described thus: Luminescence Cell-Based Dose Response HTS to Identify Inhibitors of 5'UTR Stem-Loop Driven Prion Protein mRNA Translation in H4 Neuroglioblastoma Cells. [Related pubchem assays: 1827 (Project Summary), 1813 (Primary HTS)]. The class given is functional.
Assay [10] is described as follows: cytotoxicity toward NIH3T3 fibroblasts, dose response, counter-screen, cell-based, ATP luminescence, mouse fibroblasts (AID 2010).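 Also: cells exposed to compound for about 90 hours before reading.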 It counts as functional.
Assay [11] is described as follows: inhibitors of firefly luciferase expression or activity, dose response, H4 neuroglioma cells, luminescence (AID 1990). The class given is functional, cell-based.
Assay [12] can be described thus: inhibitors of SNCA 5'UTR-driven reporter translation, confirmation, H4 neuroglioma cells, luminescence (AID 1988). The class given is functional, cell-based.
Assay [13] is described as follows: HEK293 cell cytotoxicity, dose response, cytotoxicity control, plate reader, cherry-picked samples (AID 743446). It counts as functional, cell-based.
A further assay deals with CHO-K1. The assay can be described thus: Counterscreen for antagonists of the orexin 1 receptor (OX1R; HCRTR1): Homogeneous time resolved fluorescence (HTRF)-based cell-based dose response assay to identify antagonists of the parental CHO-K1 cell line. [Related pubchem assays (depositor defined):AID434989, AID435008, AID463079, AID485270, AID492963, AID492964, AID492965, AID493232, AID504699, AID504701]. The class given is functional. Conditions: Cricetulus griseus.

Assay [14] is described as follows: LGR2 antagonists, dose response, cell-based, HEK293, CRE-luciferase reporter, cherry pick, set 2 (AID 743343).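 Also: transfected cells were stimulated with diluted bursicon conditioned medium after compound addition.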 The class given is functional. (Reporter assays use an easily measured gene product as a stand-in for the process of interest.)
Assay [15] can be described thus: MC4R antagonists, dose response, counter-screen for LGR2 antagonist project, cell-based, plate reader, cherry pick (AID 743444).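 Also: transfected HEK 293 cells stimulated with alpha-MSH peptide; potency of inhibitors of the alpha-MSH evoked signal.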 The class given is functional.
Assay [16] has as its target T1, Orexin receptor type 2 (Homo sapiens, UniProt O43614). The assay can be described thus: Counterscreen assay for antagonists of the orexin 1 receptor (OX1R; HCRTR1): Homogeneous Time Resolved Fluorescence (HTRF)-based cell-based dose response assay for antagonists of the orexin 2 receptor (OX2R; HCRTR2), run by assay provider. The class given is functional.
For assay [17], the target named is T2, Orexin/Hypocretin receptor type 1 (Homo sapiens, UniProt O43613). The assay can be described thus: Homogeneous Time Resolved Fluorescence (HTRF)-based cell-based high throughput dose response assay for antagonists of the orexin 1 receptor (OX1R; HCRTR1). [Related pubchem assays (depositor defined):AID434989, AID435008, AID463079, AID485270, AID492963, AID492964, AID492965, AID493232, AID504717, AID504718]. It counts as functional.
T2 sequence (O43613 whole entry): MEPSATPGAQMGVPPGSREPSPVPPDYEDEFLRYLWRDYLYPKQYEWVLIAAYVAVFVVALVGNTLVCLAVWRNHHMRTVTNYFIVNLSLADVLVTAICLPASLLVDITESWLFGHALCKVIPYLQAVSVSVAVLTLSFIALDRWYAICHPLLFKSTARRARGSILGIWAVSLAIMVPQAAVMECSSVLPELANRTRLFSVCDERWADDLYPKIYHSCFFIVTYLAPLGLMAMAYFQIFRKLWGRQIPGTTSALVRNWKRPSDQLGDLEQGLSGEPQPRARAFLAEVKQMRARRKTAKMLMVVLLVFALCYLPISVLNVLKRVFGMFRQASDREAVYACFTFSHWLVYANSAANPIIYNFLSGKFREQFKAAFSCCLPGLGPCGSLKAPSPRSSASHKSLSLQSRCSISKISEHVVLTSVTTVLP

Assay [18] is described as follows: HepG2 cell cytotoxicity, dose response, cytotoxicity control, plate reader, cherry-pick, antagonist series (AID 743416). It counts as functional, cell-based.
Assay [19] concerns the target Neurotensin receptor type 1 (Homo sapiens, UniProt P30989). The class given is functional.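 Also: Image-based confirmatory dose-response assay measuring agonist activity at NTR1; NTR1-expressing U2OS osteosarcoma cells imaged for beta-arrestin GFP spot formation; agonist potency where compounds increase beta-arrestin recruitment.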
The target of assay [20] is T3, Microphthalmia-associated transcription factor (Homo sapiens, UniProt O75030).
T3 sequence (O75030 whole entry): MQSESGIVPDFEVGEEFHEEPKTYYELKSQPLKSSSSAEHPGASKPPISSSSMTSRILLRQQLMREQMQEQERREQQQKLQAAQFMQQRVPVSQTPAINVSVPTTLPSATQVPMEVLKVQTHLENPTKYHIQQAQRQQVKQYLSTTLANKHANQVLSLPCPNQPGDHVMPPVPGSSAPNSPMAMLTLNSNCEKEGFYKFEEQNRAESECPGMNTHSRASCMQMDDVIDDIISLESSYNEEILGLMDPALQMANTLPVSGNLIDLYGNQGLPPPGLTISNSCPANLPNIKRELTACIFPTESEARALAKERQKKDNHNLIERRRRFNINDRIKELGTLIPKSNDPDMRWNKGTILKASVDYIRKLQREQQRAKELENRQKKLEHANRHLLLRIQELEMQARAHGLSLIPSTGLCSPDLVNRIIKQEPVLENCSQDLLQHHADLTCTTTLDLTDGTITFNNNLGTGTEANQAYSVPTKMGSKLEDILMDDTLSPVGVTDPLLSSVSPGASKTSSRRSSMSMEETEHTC
The assay can be described thus: TRPM1 promoter luciferase signal decrease, dose response, MITF inhibitor project, cell-based, SK-MEL-5, cherry-picked, set 3 (AID 493073).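 Also: SK-MEL-5 melanoma cells with luciferase driven by the MITF target TRPM1 promoter.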 It counts as functional.

The target of assay [21] is T2, Orexin/Hypocretin receptor type 1. Briefly: Fluorescence-based cell-based high throughput dose response assay for antagonists of the orexin 1 receptor (OX1R; HCRTR1). [Related pubchem assays (depositor defined):AID434989, AID435008, AID463079, AID485270, AID492963, AID492964, AID492965, AID493232, AID504717, AID504718]. It counts as functional.
Assay [22] is described as follows: Counterscreen for antagonists of the orexin 1 receptor (OX1R; HCRTR1): Fluorescence-based cell-based high throughput dose response assay to identify antagonists of the parental CHO cell line. [Related pubchem assays (depositor defined):AID434989, AID435008, AID463079, AID485270, AID492963, AID492964, AID492965, AID493232, AID504699, AID504701]. It counts as functional.

For assay [23], the target named is T1, Orexin receptor type 2. Briefly: Counterscreen assay for antagonists of the orexin 1 receptor (OX1R; HCRTR1): Fluorescence-based cell-based dose response assay for antagonists of the orexin 2 receptor (OX2R; HCRTR2), run by assay provider. It counts as functional.
Assay [24] can be described thus: A549 cell cytotoxicity, dose response, cytotoxicity control, plate reader, cherry-pick, antagonist series (AID 743412). It counts as functional, cell-based.
The target of assay [25] is Protein disulfide-isomerase (Homo sapiens, UniProt P07237). Briefly: PDI inhibitors, insulin aggregation turbidity, dose response, biochemical, absorbance, cherry-picked samples (AID 602350). It counts as functional.
Chain of Protein disulfide-isomerase (P07237 whole entry): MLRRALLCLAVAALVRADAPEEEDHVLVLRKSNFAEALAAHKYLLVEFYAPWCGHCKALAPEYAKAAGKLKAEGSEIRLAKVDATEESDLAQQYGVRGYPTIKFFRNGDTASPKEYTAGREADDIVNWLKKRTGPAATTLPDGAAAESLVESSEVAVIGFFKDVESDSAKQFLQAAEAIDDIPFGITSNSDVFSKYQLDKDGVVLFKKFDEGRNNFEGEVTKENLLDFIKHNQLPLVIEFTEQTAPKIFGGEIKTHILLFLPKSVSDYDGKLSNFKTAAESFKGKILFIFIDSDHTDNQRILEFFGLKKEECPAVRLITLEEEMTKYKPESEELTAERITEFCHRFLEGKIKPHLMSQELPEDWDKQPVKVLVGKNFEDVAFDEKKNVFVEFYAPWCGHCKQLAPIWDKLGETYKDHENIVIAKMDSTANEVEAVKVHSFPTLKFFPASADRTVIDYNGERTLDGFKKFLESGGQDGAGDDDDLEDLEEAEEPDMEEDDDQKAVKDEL

T1 sequence (O43614 whole entry): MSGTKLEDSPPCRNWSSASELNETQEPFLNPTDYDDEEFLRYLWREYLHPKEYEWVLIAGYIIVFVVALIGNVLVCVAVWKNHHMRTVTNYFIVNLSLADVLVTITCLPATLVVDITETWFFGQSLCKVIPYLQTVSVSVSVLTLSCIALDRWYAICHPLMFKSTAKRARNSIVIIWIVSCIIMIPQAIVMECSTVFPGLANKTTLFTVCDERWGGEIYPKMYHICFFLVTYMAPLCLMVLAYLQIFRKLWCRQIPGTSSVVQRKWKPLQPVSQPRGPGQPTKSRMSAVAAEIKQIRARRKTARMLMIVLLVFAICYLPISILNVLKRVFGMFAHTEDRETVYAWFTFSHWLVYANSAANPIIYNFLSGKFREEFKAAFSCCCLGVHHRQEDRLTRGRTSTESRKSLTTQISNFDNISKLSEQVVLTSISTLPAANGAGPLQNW
Chain of Neurotensin receptor type 1 (P30989 whole entry): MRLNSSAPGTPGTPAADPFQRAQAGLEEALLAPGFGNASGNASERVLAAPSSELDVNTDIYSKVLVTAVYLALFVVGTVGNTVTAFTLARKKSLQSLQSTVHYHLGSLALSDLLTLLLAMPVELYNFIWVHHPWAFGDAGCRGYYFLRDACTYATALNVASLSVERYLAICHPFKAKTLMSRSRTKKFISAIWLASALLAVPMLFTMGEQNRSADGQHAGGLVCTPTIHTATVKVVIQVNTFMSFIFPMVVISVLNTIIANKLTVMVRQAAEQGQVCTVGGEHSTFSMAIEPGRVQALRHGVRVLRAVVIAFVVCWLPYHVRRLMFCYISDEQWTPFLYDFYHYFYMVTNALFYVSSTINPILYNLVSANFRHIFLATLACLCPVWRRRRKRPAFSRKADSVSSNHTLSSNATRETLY

In general, AC50 refers to the concentration at which the activity in the assay is half-maximal. By EC50 is commonly meant the concentration needed to bring the measured effect to its halfway point. For the compound `CCOC(=O)c1cnc(-n2nc(C)cc2C)nc1NNc1cc(C)nc(-c2ccccc2)n1`, the AC50 in [1] was 2.29 µM (active); in assay [2], 3.31 µM (active); in [3], 1.74 µM (active); in the assay on INS1, 2.14 µM (active); with HEK293, 3.4 µM (active); in assay [5] it was 81.7 µM (active). Besides, the AC50 in assay [7] was 60 µM (active). Besides, the EC50 in assay [4] was 0.344 µM (active); in the assay on Streptococcus it was 1.02 µM (active); in assay [8], 0.355 µM (active); in assay [9] it was 2.8 µM (active); in [10] it was 56.7 µM (active); in [11], 0.584 µM (active). The EC50 in assay [12] was 6.73 µM (active). Moreover, the CC50 in assay [6] is 7.39 µM (active).
As a reminder, the IC50 is the midpoint of a concentration-inhibition curve. Regarding `CN(C)S(=O)(=O)c1ccc(-c2csc(N/N=C/c3ccco3)n2)cc1`, the AC50 in assay [13] was 11 µM (active); in assay [14] it was 7.23 µM (active); in assay [15], 7.48 µM (active); in assay [18], 5.32 µM (active); in [20], 3.9 µM (active); in assay [24], 40.7 µM (active). Besides, the IC50 in the assay on CHO-K1 was > 66.2 µM (inactive); on Orexin receptor type 2 [16] it was > 50 µM (inactive); in [17], 7.29 µM (active); in [21] it was > 49.8 µM (inactive); in assay [22] it was > 49.8 µM (inactive); at Orexin receptor type 2 [23], > 88.8 µM (inactive). For the same compound, the EC50 in assay [19] was 8.51 µM (active).
`O=C(CCC1CCCCC1)NCCN1C2=NC[C@H](Cc3ccc(O)cc3)N2C[C@H]1Cc1ccc(O)cc1`: the AC50 in assay [25] was 19.5 µM (active).
